Molecular target: T1, Human GLP-1 receptor (Homo sapiens, UniProt P43220)
T1 construct: expressed in transfected cells
Experiment: Measurement of GLP-1 receptor agonist activity (cAMP assay)
Assay type: cell-based
Conditions: for Emax: CHO-K1, hGLP-1R/CHO-K1 cells, cAMP, 100% = human GLP-1 (7-36) at 2 nM, 0% = DMSO only, read-out: Emax(%); for EC50: hGLP-1R/CHO-K1 cells, cAMP increase, 37° C. 1 hour
Protocol: Test Example 1: (Measurement of GLP-1 Receptor Agonist Activity)
Human GLP-1 receptor stably expressing cells (hGLP-1R/CHO-K1 cells) are cultured in an α-MEM medium (Sigma) containing 10% FBS (Hyclone), 2% GlutaMAX (Gibco), 1% G418 (Nacalai Tesque), and 1% Penicillin-Streptomycin Mixed Solution (Sigma) at 37° C. under 5% CO2 conditions, and recovered by treating a 10 fold diluted 5.0 g/l-trypsin/5.3 mmol/l-EDTA solution (Nacalai Tesque) and cryopreserved.
A DMSO solution containing the compound of the present invention or human GLP-1 (7-36) (Phoenix Pharmaceuticals) is dispensed into a 384-well microplate (Greiner) at 62.5 nL/well, and in addition, 400 μM Forskolin (Nacalai Tesque) is dispensed therein at 7.5 nL/well. Subsequently, the frozen GLP-1 R/CHO-K1 cells are thawed in a thermostatic bath at 37° C., suspended in HBSS buffer (GIBCO) containing 0.1% BSA (Sigma), 20 mM HEPES (GIBCO), 0.1 mM IBMX (Sigma), and 0.2 mM RO20-1724 (Calbiochem) at 2×10^4 cells/mL, and the cell suspension is added at 6 μL/well. The solution was incubated at 37° C. for 1 hour and intracellular cAMP concentration is measured using cAMP Gs dynamic kit (Cisbio) according to the protocol attached to the product. Specifically, cAMP-d2 and Anti-cAMP-Cryptate are each added in an amount of 3 μL/well, the mixture is incubated at room temperature for 1 hour, and time-resolved fluorescence is measured using PHERAstar (BMG Labtech).
The dilution concentration or the dilution solvent are changed as necessary.
The compounds of the present invention were tested essentially as described above.

T1 sequence (P43220 24-463): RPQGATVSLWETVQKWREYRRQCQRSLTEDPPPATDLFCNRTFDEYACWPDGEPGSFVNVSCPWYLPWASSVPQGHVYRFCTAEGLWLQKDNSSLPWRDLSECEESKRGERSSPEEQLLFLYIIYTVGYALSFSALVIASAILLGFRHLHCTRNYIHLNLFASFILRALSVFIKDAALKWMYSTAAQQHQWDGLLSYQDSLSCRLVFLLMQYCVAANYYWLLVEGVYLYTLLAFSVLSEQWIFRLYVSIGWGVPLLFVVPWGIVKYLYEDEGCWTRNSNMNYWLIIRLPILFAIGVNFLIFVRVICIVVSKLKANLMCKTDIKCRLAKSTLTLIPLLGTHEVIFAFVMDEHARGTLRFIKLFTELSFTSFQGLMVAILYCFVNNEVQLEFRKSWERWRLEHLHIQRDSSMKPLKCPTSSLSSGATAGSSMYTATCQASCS

Compound	Emax [%]	EC50 [nM]
O=C(O)c1cc(Cl)c2nc(CN3CCc4cc(C(F)(F)F)c(OCc5ccc(Cl)cc5F)cc4C3)n(C[C@@H]3CCO3)c2c1 [Compound I-061]	113	1.56
O=C(O)c1ccc2nc(CN3CCc4nc(C(F)(F)F)c(OCc5ccc(Cl)cc5F)cc4C3)n(C[C@@H]3CCO3)c2c1 [Compound I-062]	98.3	11.6
O=C(O)c1ccc2nc(CN3CCc4cc(C(F)(F)F)c(OCc5ccc(Cl)cc5F)cc4C3)n(CCOC(F)F)c2c1 [Compound I-063]	128	98.1
O=C(O)c1ccc2nc(CN3CCc4cc(C(F)(F)F)c(OCc5cc(F)c(Cl)cc5F)cc4C3)n(C[C@@H]3CCO3)c2c1 [Compound I-064]	102	5.74
Fc1cc(Cl)ccc1COc1cc2c(cc1C(F)(F)F)CCN(Cc1nc3ccc(-c4nnn[nH]4)cc3n1C[C@@H]1CCO1)C2 [Compound I-065]	116	9.82
O=C(O)c1ccc2nc(CN3CCc4cc(C(F)(F)F)c(OCc5ccc(Cl)cn5)cc4C3)n(C[C@@H]3CCO3)c2c1 [Compound I-067]	130	3.33
O=C(O)c1ccc2nc(CN3CCc4cc(C(F)(F)F)c(OCc5ncc(Cl)cc5F)cc4C3)n(C[C@@H]3CCO3)c2c1 [Compound I-068]	114	3.54
Cn1ccc(COc2cc3c(cc2C(F)(F)F)CCN(Cc2nc4ccc(C(=O)O)cc4n2C[C@@H]2CCO2)C3)n1 [Compound I-069]	116	7.28
Cc1cc(COc2cc3c(cc2C(F)(F)F)CCN(Cc2nc4ccc(C(=O)O)cc4n2C[C@@H]2CCO2)C3)no1 [Compound I-070]	119	23.4
Cn1cc(COc2cc3c(cc2C(F)(F)F)CCN(Cc2nc4ccc(C(=O)O)cc4n2C[C@@H]2CCO2)C3)cn1 [Compound I-071]	114	63.9
Cn1nnc2cc(COc3cc4c(cc3C(F)(F)F)CCN(Cc3nc5ccc(C(=O)O)cc5n3C[C@@H]3CCO3)C4)ccc21 [Compound I-072]	127	12.6
O=C(O)c1ccc2nc(CN3CCc4cc(C(F)(F)F)c(OCc5ccc6c(c5)CCC6)cc4C3)n(C[C@@H]3CCO3)c2c1 [Compound I-074]	100	40
O=C(O)c1ccc2nc(Cc3ccc4nc(C(F)(F)F)c(OCc5ccc(Cl)cc5F)nc4c3)n(C[C@@H]3CCO3)c2c1 [Compound I-076]	108	1.59
O=C(O)c1ccc2nc(CN3CCc4cc(C(F)(F)F)c(OCc5ccc(Cl)cc5F)cc4C3)n(C[C@@H]3CCO3)c2c1Cl [Compound I-078]	112	28.6
O=C(O)c1ccc2nc(CN3CCc4cc(C(F)(F)F)c(OCc5ccc(F)cc5)cc4C3)n(C[C@@H]3CCO3)c2c1 [Compound I-079]	103	6.8
O=C(O)c1ccc2nc(CN3CCc4cc(C(F)(F)F)c(OCc5ccc(Cl)cc5)cc4C3)n(C[C@@H]3CCO3)c2c1 [Compound I-080]	103	3.89
O=C(O)c1ccc2nc(CN3CCc4cc(C(F)(F)F)c(OCc5ccc(C(F)F)cc5)cc4C3)n(C[C@@H]3CCO3)c2c1 [Compound I-081]	101	7.66
O=C(O)c1ccc2nc(CN3CCc4cc(C(F)(F)F)c(OCc5ccc(OC(F)F)cc5)cc4C3)n(C[C@@H]3CCO3)c2c1 [Compound I-082]	103	2.32
O=C(O)c1ccc2nc(CN3CCc4cc(C(F)(F)F)c(OCc5ccc(C(F)(F)F)cc5)cc4C3)n(C[C@@H]3CCO3)c2c1 [Compound I-083]	93	21.4
O=C(O)c1ccc2nc(CN3CCc4cc(C(F)(F)F)c(OCc5ccc(OC(F)(F)F)cc5)cc4C3)n(C[C@@H]3CCO3)c2c1 [Compound I-084]	106	91.9
Cc1ccc(COc2cc3c(cc2C(F)(F)F)CCN(Cc2nc4ccc(C(=O)O)cc4n2C[C@@H]2CCO2)C3)cc1 [Compound I-085]	111	4.47
CS(=O)(=O)c1ccc(COc2cc3c(cc2C(F)(F)F)CCN(Cc2nc4ccc(C(=O)O)cc4n2C[C@@H]2CCO2)C3)cc1 [Compound I-086]	106	17.9
O=C(O)c1ccc2nc(CN3CCc4cc(C(F)(F)F)c(OCc5ccccc5-c5ccccc5)cc4C3)n(C[C@@H]3CCO3)c2c1 [Compound I-088]	147	7.81

Compound	Emax [%]	EC50 [nM]
O=C(O)c1ccc2nc(CN3CCc4cc(C(F)(F)F)c(OCc5ccccc5Cl)cc4C3)n(C[C@@H]3CCO3)c2c1 [Compound I-090]	106	6.6
O=C(O)c1ccc2nc(CN3CCc4cc(C(F)(F)F)c(OCc5ccc(F)c(F)c5)cc4C3)n(C[C@@H]3CCO3)c2c1 [Compound I-093]	111	16.6
O=C(O)c1ccc2nc(CN3CCc4cc(C(F)(F)F)c(OCc5ccc(F)c(F)c5F)cc4C3)n(C[C@@H]3CCO3)c2c1 [Compound I-094]	102	28.5
O=C(O)c1ccc2nc(CN3CCc4cc(C(F)(F)F)c(OCc5cc(F)c(F)cc5F)cc4C3)n(C[C@@H]3CCO3)c2c1 [Compound I-095]	112	10.5
O=C(O)c1ccc2nc(CN3CCc4cc(C(F)(F)F)c(OCc5ccc(F)cc5Cl)cc4C3)n(C[C@@H]3CCO3)c2c1 [Compound I-097]	105	2.42
O=C(O)c1ccc2nc(CN3CCc4cc(C(F)(F)F)c(OCc5ccc(Cl)c(F)c5)cc4C3)n(C[C@@H]3CCO3)c2c1 [Compound I-098]	120	10.9
O=C(O)c1ccc2nc(CN3CCc4cc(C(F)(F)F)c(OCc5ccc(Cl)cc5Cl)cc4C3)n(C[C@@H]3CCO3)c2c1 [Compound I-099]	114	1.43
O=C(O)c1ccc2nc(CN3CCc4cc(C(F)(F)F)c(OCc5ccc(Cl)cc5C(F)(F)F)cc4C3)n(C[C@@H]3CCO3)c2c1 [Compound I-100]	90.7	95.2
O=C(O)c1ccc2nc(CN3CCc4cc(C(F)(F)F)c(OCc5c(F)cc(Cl)cc5F)cc4C3)n(C[C@@H]3CCO3)c2c1 [Compound I-101]	113	2.23
O=C(O)c1ccc2nc(CN3CCc4cc(C(F)(F)F)c(OCc5ccc(C6CC6)cc5)cc4C3)n(C[C@@H]3CCO3)c2c1 [Compound I-102]	106	5.09
N#Cc1ccc(COc2cc3c(cc2C(F)(F)F)CCN(Cc2nc4ccc(C(=O)O)cc4n2C[C@@H]2CCO2)C3)cc1 [Compound I-103]	113	5.6
COc1ccc(COc2cc3c(cc2C(F)(F)F)CCN(Cc2nc4ccc(C(=O)O)cc4n2C[C@@H]2CCO2)C3)cc1 [Compound I-104]	102	4.78
O=C(O)c1ccc2nc(CN3CCc4cc(C(F)(F)F)c(OCc5ccc(F)cc5F)cc4C3)n(C[C@@H]3CCO3)c2c1 [Compound I-106]	101	6.88
O=C(O)c1ccc2nc(CN3CCc4cc(C(F)(F)F)c(OCc5c(F)cc(F)cc5F)cc4C3)n(C[C@@H]3CCO3)c2c1 [Compound I-107]	101	3.5
Cc1cc(C(=O)O)cc2c1nc(CN1CCc3cc(C(F)(F)F)c(OCc4ccc(Cl)cc4F)cc3C1)n2C[C@@H]1CCO1 [Compound I-108]	108	8.33
O=C(O)c1ccc2nc(CN3CCc4cc(C(F)(F)F)c(OCc5ccc(Cl)cc5F)nc4C3)n(C[C@@H]3CCO3)c2c1 [Compound I-110]	114	–
C[C@H]1c2cc(OCc3ccc(C#N)cc3)c(C(F)(F)F)cc2CCN1Cc1nc2ccc(C(=O)O)cc2n1C[C@@H]1CCO1 [Compound I-111]	126	2.51
C[C@H]1c2cc(OCc3ccc(C#N)cc3)c(C(F)(F)F)cc2CCN1Cc1nc2c(F)cc(C(=O)O)cc2n1C[C@@H]1CCO1 [Compound I-112]	114	1.1
C[C@H]1c2cc(OCc3ccc(C#N)cc3)c(C(F)(F)F)cc2CCN1Cc1nc2ccc(C(=O)O)c(F)c2n1C[C@@H]1CCO1 [Compound I-113]	124	1.46
C[C@H]1c2cc(OCc3c(F)cc(Cl)cc3F)c(C(F)(F)F)cc2CCN1Cc1nc2ccc(C(=O)O)cc2n1C[C@@H]1CCO1 [Compound I-114]	132	0.604
C[C@H]1c2cc(OCc3c(F)cc(Cl)cc3F)c(C(F)(F)F)cc2CCN1Cc1nc2ccc(C(=O)O)nc2n1C[C@@H]1CCO1 [Compound I-115]	124	0.538
C[C@H]1c2cc(OCc3ccc(Cl)cc3Cl)c(C(F)(F)F)cc2CCN1Cc1nc2ccc(C(=O)O)nc2n1C[C@@H]1CCO1 [Compound I-118]	113	0.658
COc1cc(C(=O)O)cc2c1nc(CN1CCc3cc(C(F)(F)F)c(OCc4ccc(Cl)cc4F)cc3C1)n2C[C@@H]1CCO1 [Compound I-119]	119	0.569

Reference: patent US20240217966A1, “PHARMACEUTICAL COMPOSITION CONTAINING GLP-1 RECEPTOR AGONIST HAVING FUSED RING” (Shionogi & Co., Ltd., priority 2021, published 2024)
